This is an account of results in US8003648B2, “Heterocyclic GPR40 modulators” (Amgen Inc., priority 2006, dated 2011).

The test deals with T1, human GPR40 (Homo sapiens, UniProt O14842).
T1 construct: host or cells: CHO cells
Kind of test: Cell-based aequorin assay using human GPR40. Conditions: activation of human GPR40; CHO cells stably transfected with GPR40 and Aequorin; 0.01% HSA; aequorin luminescence. The procedure: Cell-based aequorin assays were employed to characterize the modulatory activity of compounds on the GPR40 signaling pathway. In an exemplary assay, CHO cells were stably transfected with both GPR40 and Aequorin (Euroscreen). Cells were detached from the tissue culture dish with 2 mL of trypsin (0.25% (w/v)). Trypsinization was halted with 28 mL of Hanks Buffered Salt Solution containing 20 mM Hepes (H/HBSS) and 0.01% fatty acid-free human serum albumin (HSA). Coelantrazine is added to 1 ug/mL, and the cells were incubated for 2 hours at room temperature. Compounds were dissolved in DMSO for preparation of 10 mM stock solutions. Compounds were diluted in H/HBSS containing 0.01% HSA. Serial dilutions of the test compounds were prepared to determine dose response.
Aequorin luminescence measurements were made using an EG&G Berthold 96-well luminometer, and the response was measured over a 20 second interval after cells and compounds were mixed. The maximum relative light units was plotted to determine dose response. The EC50 (effective concentration to reach 50% maximal response) was determined from the dose response plot.
Table 1 presents representative data (EC50 values) obtained for exemplary compounds of the invention for the activation of human GPR40. […]

Each structure is given as a SMILES string.

T1 sequence (O14842 whole entry): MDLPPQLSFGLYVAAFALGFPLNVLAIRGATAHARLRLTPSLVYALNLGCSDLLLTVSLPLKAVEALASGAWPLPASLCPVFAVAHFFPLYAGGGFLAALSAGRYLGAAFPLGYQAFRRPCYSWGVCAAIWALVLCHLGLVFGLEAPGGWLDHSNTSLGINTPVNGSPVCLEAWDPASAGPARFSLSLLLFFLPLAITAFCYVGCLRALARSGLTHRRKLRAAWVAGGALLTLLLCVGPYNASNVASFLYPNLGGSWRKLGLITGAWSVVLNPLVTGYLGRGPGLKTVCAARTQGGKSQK

Regarding `CC(C)(C)OC(=O)N1CC=C(c2cccc(COc3ccc([C@H](CC(=O)O)c4ccon4)cc3)c2)CC1` [Example 34, (S)-3-(4-(3-(1-(Tert-butoxycarbonyl)-1,2,3,6-tetrahydropyridin-4-yl)benzyloxy)phenyl)-3-(isoxazol-3-yl)propanoic acid], the EC50 lay within 1000 to 10000 nM.

In turn, `C=C(C)c1ccc(COc2ccc([C@H](CC(=O)O)c3ccon3)cc2)cc1OC(F)(F)F` [Example 35, (S)-3-(4-(4-(Prop-1-en-2-yl)-3-(trifluoromethoxy)benzyloxy)-phenyl)-3-(isoxazol-3-yl)propanoic acid] yielded a concentration for a half-maximal effect (EC50) of 10 to 100 nM. Regarding `CC1(C)CCC=C1c1ccc(COc2ccc([C@H](CC(=O)O)c3ccon3)cc2)cc1OC(F)(F)F` [Example 36, (S)-3-(4-(4-(5,5-Dimethylcyclopent-1-enyl)-3-(trifluoromethoxy)benzyloxy)phenyl)-3-(isoxazol-3-yl)propanoic acid], the EC50 was in the range of 100 to 1000 nM. In the case of `CC(C)c1ccc(COc2ccc([C@H](CC(=O)O)c3ccon3)cc2)cc1OC(F)(F)F` [Example 37, (S)-3-(4-(4-Isopropyl-3-(trifluoromethoxy)benzyloxy)phenyl)-3-(isoxazol-3-yl)propanoic acid] it was 10 to 100 nM; in that of `CC1(C)CCC=C1c1cc(COc2ccc([C@H](CC(=O)O)c3ccon3)cc2)ccc1OC(F)(F)F` [Example 38, (S)-3-(4-(3-(5,5-Dimethylcyclopent-1-enyl)-4-(trifluoromethoxy)benzyloxy)phenyl)-3-(isoxazol-3-yl)propanoic acid], 10 to 100 nM; in that of `Cc1cc([C@@H](CC(=O)O)c2ccc(OCc3cccc(-c4ccc(C(F)(F)F)cc4)c3)cc2)no1` [Example 39, (S)-3-(4-(3-(4-(Trifluoromethyl)phenyl)benzyloxy)phenyl)-3-(5-methylisoxazol-3-yl)propanoic acid], 100 to 10000 nM. With `CC1(C)CCC(C)(C)c2cc(COc3ccc([C@H](CC(=O)O)c4ccon4)cc3)ccc21` [Example 40, (S)-3-(Isoxazol-3-yl)-3-(4-((5,5,8,8-tetramethyl-5,6,7,8-tetrahydronaphthalen-2-yl)methoxy)phenyl)propanoic acid], the EC50 fell in the range of 10 to 100 nM. Compound `CC1(C)CCC(C)(C)c2cc(COc3ccc([C@@H](CC(=O)O)c4ccon4)cc3)ccc21` [Example 41, (R)-3-(Isoxazol-3-yl)-3-(4-((5,5,8,8-tetramethyl-5,6,7,8-tetrahydronaphthalen-2-yl)methoxy)phenyl)propanoic acid] had an EC50 of 1000 to 10000 nM. In the case of `CC1(C)CCC(C)(C)c2cc(COc3ccc(C(CC(=O)O)C4=NOCC4)cc3)ccc21` (stereo not shown) [Example 42, 3-(4,5-Dihydroisoxazol-3-yl)-3-(4-((5,5,8,8-tetramethyl-5,6,7,8-tetrahydronaphthalen-2-yl)methoxy)phenyl)propanoic acid] it was 100 to 1000 nM; in that of `CCOCCOc1cc(COc2ccc([C@H](CC(=O)O)c3ccon3)cc2)c(Br)cc1C(C)(C)C` [Example 46, (S)-3-(4-(2-Bromo-4-tert-butyl-5-(2-ethoxyethoxy)benzyloxy)phenyl)-3-(isoxazol-3-yl)propanoic acid], 100 to 1000 nM. Compound `O=C(O)C[C@@H](c1ccc(OCCOc2ccc(C(F)(F)F)cc2)cc1)c1ccon1` [Example 47, (S)-3-(Isoxazol-3-yl)-3-(4-(2-(4-(trifluoromethyl)phenoxy)ethoxy)phenyl)propanoic acid] had an EC50 of 100 to 1000 nM. `O=C(O)C[C@@H](c1ccc(OCCCOc2ccc(C(F)(F)F)cc2)cc1)c1ccon1` [Example 48] had an EC50 of 100 to 1000 nM. In the case of `O=C(O)C[C@@H](c1ccc(OCCCCOc2ccc(C(F)(F)F)cc2)cc1)c1ccon1` [Example 49], the EC50 lay in the range of 100 to 1000 nM. In turn, `Cc1oc(-c2ccc(C(F)(F)F)cc2)nc1COc1ccc([C@H](CC(=O)O)c2ccon2)cc1` [Example 50, (S)-3-(Isoxazol-3-yl)-3-(4-((5-methyl-2-(4-(trifluoromethyl)phenyl)oxazol-4-yl)methoxy)phenyl)propanoic acid] registered a 50% effective concentration (EC50) of 100 to 1000 nM. `Cc1nc(-c2ccc(C(F)(F)F)cc2)oc1COc1ccc([C@H](CC(=O)O)c2ccon2)cc1` [Example 51, (S)-3-(Isoxazol-3-yl)-3-(4-((4-methyl-2-(4-(trifluoromethyl)phenyl)oxazol-5-yl)methoxy)phenyl)propanoic acid] came in with an EC50 of 100 to 1000 nM. In the case of `Cc1oc(-c2ccc(C(F)(F)F)cc2)cc1COc1ccc([C@H](CC(=O)O)c2ccon2)cc1` [Example 52, (S)-3-(Isoxazol-3-yl)-3-(4-((2-methyl-5-(4-(trifluoromethyl)phenyl)furan-3-yl)methoxy)phenyl)propanoic acid] it was 10 to 100 nM; in that of `Cc1oc(-c2ccc(Cl)cc2)cc1COc1ccc([C@H](CC(=O)O)c2ccon2)cc1` [Example 53, (S)-3-(4-((5-(4-Chlorophenyl)-2-methylfuran-3-yl)methoxy)phenyl)-3-(isoxazol-3-yl)propanoic acid], 10 to 100 nM; in that of `CCN(CC)Cc1ccc(-c2nc(C)c(COc3ccc([C@H](CC(=O)O)c4ccon4)cc3)s2)cc1` [Example 54, (S)-3-(4-((2-(4-((Diethylamino)methyl)phenyl)-4-methylthiazol-5-yl)methoxy)phenyl)-3-(isoxazol-3-yl)propanoic acid], 1000 to 10000 nM. In the case of `Cc1nc(-c2ccc(CCCO)cc2)sc1COc1ccc([C@H](CC(=O)O)c2ccon2)cc1` [Example 55, (S)-3-(4-((2-(4-(3-Hydroxypropyl)phenyl)-4-methylthiazol-5-yl)methoxy)phenyl)-3-(isoxazol-3-yl)propanoic acid] it was 1000 to 10000 nM; in that of `CCCCc1ccc(-c2cc(COc3ccc([C@H](CC(=O)O)c4ccon4)cc3)c(C)o2)cc1` [Example 56], 100 to 1000 nM. In turn, `Cc1nc(-c2ccc(Cl)cc2)sc1COc1ccc([C@H](CC(=O)O)c2ccon2)cc1` [Example 57, (S)-3-(Isoxazol-3-yl)-3-(4-((4-methyl-2-(4-chlorophenyl)thiazol-5-yl)methoxy)phenyl)propanoic acid] came in with a concentration for a half-maximal effect (EC50) of 10 to 100 nM.

Compound `Cc1ccc(-c2nc(C)c(COc3ccc([C@H](CC(=O)O)c4ccon4)cc3)s2)cc1` [Example 58, (S)-3-(Isoxazol-3-yl)-3-(4-((4-methyl-2-(4-methylphenyl)thiazol-5-yl)methoxy)phenyl)propanoic acid] had an EC50 of 10 to 100 nM.

Turning to `Cc1ccc(-c2nc(C)c(COc3ccc([C@@H](CC(=O)O)c4ccon4)cc3)s2)cc1` [Example 59, (R)-3-(Isoxazol-3-yl)-3-(4-((4-methyl-2-(4-methylphenyl)thiazol-5-yl)methoxy)phenyl)propanoic acid], the half-maximal effective concentration (EC50) was in the range of 1000 to 10000 nM. For `CCCCc1ccc(-c2ccc(COc3ccc([C@H](CC(=O)O)c4ccon4)cc3)s2)cc1` [Example 60, (3S)-3-(4-(((5-(4-butylphenyl)-2-thienyl)methyl)oxy)phenyl)-3-(3-isoxazolyl)propanoic acid], the concentration giving a half-maximal response (EC50) is 10 to 100 nM.

Compound `O=C(O)C[C@@H](c1ccc(OCc2ccc(-c3ccc(C(F)(F)F)cc3)s2)cc1)c1ccon1` [Example 61, (3S)-3-(3-Isoxazolyl)-3-(4-(((5-(4-(trifluoromethyl)phenyl)-2-thienyl)methyl)oxy)phenyl)propanoic acid] had an EC50 of 10 to 100 nM.

Regarding `Cc1cc(-c2ccc(C(F)(F)F)cc2)sc1COc1ccc([C@H](CC(=O)O)c2ccon2)cc1` [Example 62, (3S)-3-(3-Isoxazolyl)-3-(4-(((3-methyl-5-(4-(trifluoromethyl)phenyl)-2-thienyl)methyl)oxy)phenyl)propanoic acid], the 50% effective concentration (EC50) lay within 10 to 100 nM.

`O=C(O)C[C@@H](c1ccc(OCc2noc(-c3ccccc3)n2)cc1)c1ccon1` [Example 63] yielded an EC50 of 1000 to 10000 nM. Consider `COc1ccccc1-c1nc(COc2ccc([C@H](CC(=O)O)c3ccon3)cc2)no1` [Example 64], for which the 50% effective concentration (EC50) lay within 1000 to 10000 nM.

`O=C(O)C[C@@H](c1ccc(OCc2noc(-c3ccc(C(F)(F)F)cc3)n2)cc1)c1ccon1` [Example 65] returned an EC50 of 1000 to 10000 nM. As to `O=C(O)C[C@@H](c1ccc(OCc2noc(-c3cccc(C(F)(F)F)c3)n2)cc1)c1ccon1` [Example 66], the EC50 fell in the range of 1000 to 10000 nM. Regarding `O=C(O)C[C@@H](c1ccc(OCc2nc(-c3ccccc3)no2)cc1)c1ccon1` [Example 67], the concentration for a half-maximal effect (EC50) was 1000 to 10000 nM. For the compound `O=C(O)C[C@@H](c1ccc(OCc2nc(-c3cccc(C(F)(F)F)c3)no2)cc1)c1ccon1` [Example 68], the EC50 lay in the range of 1000 to 10000 nM. Compound `O=C(O)C[C@@H](c1ccc(OCc2nc(-c3ccc(Cl)cc3)no2)cc1)c1ccon1` [Example 69] registered a concentration giving a half-maximal response (EC50) of 1000 to 10000 nM. In the case of `CC(C)(C)c1ccc(-c2noc(COc3ccc([C@H](CC(=O)O)c4ccon4)cc3)n2)cc1` [Example 70], the EC50 is 100 to 1000 nM. `O=C(O)C[C@@H](c1ccc(OCc2nc(-c3c(Cl)cccc3Cl)no2)cc1)c1ccon1` [Example 71] showed a concentration for a half-maximal effect (EC50) of 1000 to 10000 nM. On to `Cc1nc(-c2cccc(C(F)(F)F)c2)sc1COc1ccc([C@H](CC(=O)O)c2ccon2)cc1` [Example 72, (3S)-3-(Isoxazol-3-yl)-3-(4-((4-methyl-2-(3-(trifluoromethyl)phenyl)thiazol-5-yl)methoxy)phenyl)propanoic acid], for which the 50% effective concentration (EC50) lay within 10 to 100 nM.

`CCCCOc1ccc(-c2nc(C)c(COc3ccc([C@H](CC(=O)O)c4ccon4)cc3)s2)cc1F` [Example 75, (3S)-3-(4-((2-(4-Butoxy-3-fluorophenyl)-4-methylthiazol-5-yl)methoxy)phenyl)-3-(isoxazol-3-yl)propanoic acid] yielded an EC50 of 10 to 100 nM.

As a reminder, the EC50 is the concentration needed to bring the measured effect to its halfway point. A lower EC50 goes with an effect from little substance.
